From the supplement of paper PMC7017272
± gives the standard deviation of the averaged measurements.

Assays:
Details in all cases: treatment time: 3 days
[1] = test system: UT-SCC-24A; experiment: drug sensitivity score (DSS); higher = more sensitive
Method: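 HNSCC cell lines (500 cells/well, 384-well) were cultured on plastic, on top of (2D) or embedded (3D) in Matrigel or human leiomyoma matrix Myogel (500 ug/mL; Myogel 3D mixed with rat collagen I). Cells were treated for 3 days with 5 ten-fold concentrations of each drug, and viability was read by CellTiter-Glo. Suffixes _1/_2/_3 on drug names are replicates.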

[2] = test system: UT-SCC-106A; experiment: maximal % inhibition of viability relative to DMSO; higher = stronger effect
Method: (§1)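 HNSCC cell lines (500 cells/well, 384-well) were cultured on plastic, on top of (2D) or embedded (3D) in Matrigel or human leiomyoma matrix Myogel (500 ug/mL; Myogel 3D mixed with rat collagen I). Cells were treated for 3 days with 5 ten-fold concentrations of each drug, and viability was read by CellTiter-Glo. Viability was normalised to DMSO and benzethonium chloride controls and fitted with the FIMM DSRT pipeline to give IC50 (nM), maximal % inhibition and DSS. Suffixes _1/_2/_3 are replicates. Only inhibition-mode (IC50) fits are kept.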

[3] = test system: UT-SCC-14; experiment: as above
Method: as §1

[4] = test system: UT-SCC-24B; experiment: as above
Method: as §1

[5] = test system: UT-SCC-28; experiment: as above
Method: as §1

[6] = test system: UT-SCC-40; experiment: as above
Method: as §1

[7] = test system: UT-SCC-42A; experiment: as above
Method: as §1

[8] = test system: UT-SCC-42B; experiment: as above
Method: as §1

[9] = test system: UT-SCC-44; experiment: as above
Method: as §1

[10] = test system: UT-SCC-73; experiment: as above
Method: as §1

[11] = test system: UT-SCC-81; experiment: as above
Method: as §1

[12] = test system: UT-SCC-8; experiment: as above
Method: as §1

[13] = test system: UT-SCC-24A; experiment: as above
Method: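 HNSCC cell lines (500 cells/well, 384-well) were cultured on plastic, on top of (2D) or embedded (3D) in Matrigel or human leiomyoma matrix Myogel (500 ug/mL; Myogel 3D mixed with rat collagen I). Cells were treated for 3 days with 5 ten-fold concentrations of each drug, and viability was read by CellTiter-Glo. Viability was normalised to DMSO (0% inhibition) and 100 uM benzethonium chloride (100% inhibition) controls and fitted with the FIMM DSRT pipeline to give IC50 (nM), maximal % inhibition and the drug sensitivity score (DSS). Suffixes _1/_2/_3 on drug names are replicates.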

[14] = test system: UT-SCC-106A; experiment: relative IC50 (midpoint of the fitted curve; maximal inhibition may be below 50%); higher = less potent
Procedure, shortened: (§2)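 Viability was read with CellTiter-Glo 2.0 luminescence and scaled against vehicle (0.1% DMSO) and cell-killing control wells. The assay used HPV-negative HNSCC cell lines at 500 cells/well in 384-well plates, grown on plastic, on Matrigel or Myogel coatings (500 µg/mL), or embedded in Matrigel or Myogel plus rat collagen I, and treated for 3 days at five 10-fold concentrations. IC50, maximal inhibition and drug sensitivity score were derived from percent-inhibition dose–response curves fitted in the FIMM pipeline.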

[15] = test system: UT-SCC-24B; experiment: as above
Procedure, shortened: as §2

[16] = test system: UT-SCC-40; experiment: as above
Procedure, shortened: as §2

[17] = test system: UT-SCC-8; experiment: as above
Procedure, shortened: as §2

[18] = culture condition: embedded in Matrigel
[19] = culture condition: embedded in Myogel + collagen I
[20] = culture condition: on top of Matrigel
[21] = culture condition: on top of Myogel
[22] = culture condition: plastic 2D (no matrix)

COc1cc(F)c(F)c(Nc2ccc(I)cc2F)c1NS(=O)(=O)C1(C[C@H](O)CO)CC1 [Refametinib]
drug sensitivity score [1, 18]: 34.3 ± 1.1 DSS | drug sensitivity score [1, 19]: 17.3 ± 2.2 DSS | drug sensitivity score [1, 20]: 29.2 ± 1.3 DSS | drug sensitivity score [1, 21]: 13 ± 1.6 DSS | drug sensitivity score [1, 22]: 26.7 ± 0.62 DSS | maximal % inhibition of viability [2, 18]: 53.7 ± 4.7% | maximal % inhibition of viability [2, 19]: 36.7 ± 3.4% | maximal % inhibition of viability [2, 20]: 66 ± 2.5% | maximal % inhibition of viability [2, 21]: 43.4 ± 3.1% | maximal % inhibition of viability [2, 22]: 67.33 ± 0.64% | maximal % inhibition of viability [3, 18]: 62.5 ± 5.1% | maximal % inhibition of viability [3, 19]: 57 ± 5.9% | maximal % inhibition of viability [3, 20]: 52.9 ± 9.5% | maximal % inhibition of viability [3, 21]: 52.2 ± 5.8% | maximal % inhibition of viability [3, 22]: 47.7 ± 7.5% | maximal % inhibition of viability [4, 18]: 72.4 ± 3.9% | maximal % inhibition of viability [4, 19]: 86.3 ± 3.8% | maximal % inhibition of viability [4, 20]: 72.9 ± 4.8% | maximal % inhibition of viability [4, 21]: 72.2 ± 2.3% | maximal % inhibition of viability [4, 22]: 84 ± 2.2% | maximal % inhibition of viability [5, 18]: 49.8 ± 4% | maximal % inhibition of viability [5, 19]: 33 ± 8.1% | maximal % inhibition of viability [5, 20]: 45.1 ± 8.6% | maximal % inhibition of viability [5, 22]: 23.7 ± 2% | maximal % inhibition of viability [6, 18]: 80.9 ± 2.5% | maximal % inhibition of viability [6, 19]: 76 ± 7.2% | maximal % inhibition of viability [6, 20]: 75.9 ± 1.6% | maximal % inhibition of viability [6, 21]: 61.23 ± 0.5% | maximal % inhibition of viability [6, 22]: 63.2 ± 2.9% | maximal % inhibition of viability [7, 18]: 61.2 ± 1.2% | maximal % inhibition of viability [7, 19]: 42.4 ± 6.9% | maximal % inhibition of viability [7, 20]: 61.9 ± 0.94% | maximal % inhibition of viability [7, 21]: 48.8 ± 5.2% | maximal % inhibition of viability [7, 22]: 58.8 ± 3.1% | maximal % inhibition of viability [8, 18]: 79.1 ± 7.6% | maximal % inhibition of viability [8, 20]: 64.1 ± 4.8% | maximal % inhibition of viability [8, 21]: 46.5 ± 1.5% | maximal % inhibition of viability [8, 22]: 47.5 ± 2.6% | maximal % inhibition of viability [9, 18]: 90.4 ± 2.6% | maximal % inhibition of viability [9, 19]: 55.1 ± 5% | maximal % inhibition of viability [9, 20]: 73.2 ± 7% | maximal % inhibition of viability [9, 21]: 56.9 ± 0.9% | maximal % inhibition of viability [9, 22]: 62.2 ± 4.4% | maximal % inhibition of viability [10, 18]: 85.7 ± 3.9% | maximal % inhibition of viability [10, 19]: 73.4 ± 14% | maximal % inhibition of viability [10, 20]: 81.8 ± 1.5% | maximal % inhibition of viability [10, 21]: 72 ± 2.7% | maximal % inhibition of viability [10, 22]: 75.8 ± 3.1% | maximal % inhibition of viability [11, 18]: 87.7 ± 0.46% | maximal % inhibition of viability [11, 19]: 50.7 ± 1.9% | maximal % inhibition of viability [11, 20]: 82.7 ± 0.99% | maximal % inhibition of viability [11, 21]: 52 ± 3.4% | maximal % inhibition of viability [11, 22]: 73.1 ± 2.5% | maximal % inhibition of viability [12, 18]: 88.8 ± 1.6% | maximal % inhibition of viability [12, 19]: 74.1 ± 13% | maximal % inhibition of viability [12, 20]: 81.7 ± 2.5% | maximal % inhibition of viability [12, 21]: 73 ± 5.1% | maximal % inhibition of viability [12, 22]: 80.2 ± 3.9% | maximal % inhibition of viability [13, 18]: 84.4 ± 1.8% | maximal % inhibition of viability [13, 19]: 73.9 ± 0.81% | maximal % inhibition of viability [13, 20]: 80.4 ± 2.4% | maximal % inhibition of viability [13, 21]: 59.7 ± 7.4% | maximal % inhibition of viability [13, 22]: 75.4 ± 3.4% | relative IC50 [14, 18]: 15.2 nM | relative IC50 [14, 20]: 15.5 nM | relative IC50 [14, 21]: 498 nM | relative IC50 [14, 22]: 25.7 nM | relative IC50 [15, 18]: 309 nM | relative IC50 [15, 19]: 808 nM | relative IC50 [15, 20]: 317 nM | relative IC50 [15, 21]: 1430 nM | relative IC50 [15, 22]: 184 nM | relative IC50 [16, 18]: 15.3 nM | relative IC50 [16, 19]: 118 nM | relative IC50 [16, 20]: 33.5 nM | relative IC50 [16, 21]: 83.3 nM | relative IC50 [16, 22]: 111 nM | relative IC50 [17, 18]: 259 nM | relative IC50 [17, 19]: 1760 nM | relative IC50 [17, 20]: 410 nM | relative IC50 [17, 22]: 602 nM
